Test results reported in patent publication US20190008810A1, “METHOD FOR PREVENTION, TREATMENT AND ALLEVIATION OF INFECTIOUS DISEASES AND DISORDERS” (REPLICON HEALTH OY, priority 2016, published 2019).

Columns and labels:
[1] = test system: seasonal flu or similar infectious disease; assay type: in vivo, human; conditions: S1, 2 or 3 times 1×500 mg during work days, before DGA
[2] = test system: acute bowels inflammation caused by diverticulitis; assay: Healing from acute inflammatory bowels disease (diverticulitis) in S4, Example 1e; assay type: in vivo, human; conditions: S4, 1000 mg 1-2 times a day, before DGA
From the text: In Example 1e the resolution of gastrointestinal tract infection in another subject 4 (S4) has been shown. Like in S1 also in S4 the HO-1 pathway is clearly activated by the DGA Activation. This is indirectly shown by the clear reduction of blood bilirubin in Table 1e. […] During last few years these seldom but acute inflammations in the gastrointestinal tract have been mostly in the colon and caused by inflammation in Colonic diverticula. […] The only functioning therapy for inflammatory bowels disease has been the administration of strong intravenous antibiotics.
Like other tests with unhealthy humans also this test was done because there were no other efficient substances available. When symptoms of increased bowels inflammation/diverticulosis started S4 was on holiday abroad with very difficult access to any specialized doctor not to mention any hospital. […] Simultaneously with inflammatory symptoms and maybe partially enhancing them S4 experienced constipation.
By Saturday night on the 4th day of gradually increasing acute inflammation in the colon, S4 decided to test whether DGA Activation in combination with paracetamol would assist in resolving this already rather serious inflammation. There were no other available options at that moment. This decision was also supported by confidential information received on positive results with S1 (Examples 1b and 1c).
Saturday night at 0737 pm first 260 mg of D-glyceric acid calcium salt mixed into water was taken with 2×500 mg of paracetamol. Another additional 260 mg dose of DGAcs mixed into water was taken the same night at 1020 pm. Altogether the starting dose was 9 mg/kg i.e. relatively high. High initial dose was chosen because of high level of inflammation.

CC(=O)Nc1ccc(O)cc1 [paracetamol, reference compound] was tested, and the “effect on general symptoms and fever” value [1] was “temporary relief but no cure” and the “effect on pains and symptoms” value [2] was “helped to relief pains for 2-3 days but the symptoms got worse”.
